Source: US20230192700A1, “PYRAZOLOPYRAZINES ACTING ON CANCERS VIA INHIBITION OF CDK12” (Bayer Aktiengesellschaft, priority 2020, published 2023)

Key:
CDK2/CyclinE = target: T1, CDK2/CyclinE (Homo sapiens, UniProt P24941); assay: CDK2/CycE kinase assay (TR-FRET); assay type: biochemical; conditions: 2 mM ATP (high ATP); median; read-out: CDK2/CyclinE, 2 mM ATP (high ATP) IC50 - [mol/l] (median)
T1 construct: GST; purchased ProQinase GmbH (Freiburg, Germany); host or cells: insect cells (Sf9)
Description: 2.4 CDK2/CycE Kinase Assay
CDK2/CycE-inhibitory activity of compounds of the present invention was quantified employing the CDK2/CycE TR-FRET assay as described in the following paragraphs.
Recombinant fusion proteins of GST and human CDK2 and of GST and human CycE, expressed in insect cells (Sf9) and purified by Glutathion-Sepharose affinity chromatography, were purchased from ProQinase GmbH (Freiburg, Germany). As substrate for the kinase reaction biotinylated peptide biotin-Ttds-YISPLKSPYKISEG (C-terminus in amid form) was used which can be purchased e.g. form the company JERINI peptide technologies (Berlin, Germany).
For the assay 50 nanoL of a 100 fold concentrated solution of the test compound in DMSO was pipetted into a black low volume 384 well microtiter plate or a black 1536 well microtiter plate (both Greiner Bio-One, Frickenhausen, Germany), 2 microL of a solution of CDK2/CycE in aqueous assay buffer [50 millimol/L Tris/HCl pH 8.0, 10 millimol/L MgCl2, 1.0 millimol/L dithiothreitol, 0.1 millimol/L sodium ortho-vanadate, 0.01% (v/v) Nonidet-P40 (Sigma)] were added and the mixture was incubated for 15 min at 22° C. to allow pre-binding of the test compounds to the enzyme before the start of the kinase reaction. Then the kinase reaction was started by the addition of 3 microL of a solution of adenosine-tri-phosphate (ATP, 3.33 millimol/L=>final conc. in the 5 microL assay volume is 2 millimol/L) and substrate (1.25 micromol/L=>final conc. in the 5 microL assay volume is 0.75 micromol/L) in assay buffer and the resulting mixture was incubated for a reaction time of 25 min at 22° C. The concentration of CDK2/CycE was adjusted depending of the activity of the enzyme lot and was chosen appropriate to have the assay in the linear range, typical concentrations were in the range of 10 ng/mL. The reaction was stopped by the addition of 3 microL of a solution of TR-FRET detection reagents (0.333 micromol/L streptavidine-XL665 [Cisbio Bioassays, Codolet, France] and 1.67 nanomol/L anti-RB(pSer807/pSer811)-antibody from BD Pharmingen [#558389] and 2 nanomol/L LANCE EU-W1024 labeled anti-mouse IgG antibody [Perkin-Elmer, product no. AD0077, as an alternative a Terbium-cryptate-labeled anti-mouse IgG antibody from Cisbio Bioassays can be used]) in an aqueous EDTA-solution (167 millimol/L EDTA, 0.2% (w/v) bovine serum albumin in 100 millimol/L HEPES pH 7.5).
The resulting mixture was incubated 1 h at 22° C. to allow the formation of complex between the phosphorylated biotinylated peptide and the detection reagents. Subsequently the amount of phosphorylated substrate was evaluated by measurement of the resonance energy transfer from the Eu-chelate to the streptavidine-XL. Therefore, the fluorescence emissions at 620 nm and 665 nm after excitation at 350 nm was measured in a TR-FRET reader, e.g. a Pherastar (BMG Labtechnologies, Offenburg, Germany) or a Viewlux (Perkin-Elmer). The ratio of the emissions at 665 nm and at […] was taken as the measure for the amount of phosphorylated substrate. The data were normalised (enzyme reaction without inhibitor=0% inhibition, all other assay components but no enzyme=100% inhibition).

CYCLIN K = target: T2, CYCLIN K (Homo sapiens, UniProt O75909); assay: CYCLIN K nuclear protein level: immunofluorescence/high content analysis in CAL-120 cells; assay type: cell-based; conditions: 24 h, nuclear CCNK staining intensity, median, read-out: CYCLIN K degradation IF, DC50- [mol/l] (median)
T2 construct: endogenous in cells; host or cells: CAL-120 human breast cancer cells (DSMZ ACC 459)
Procedure: 7. CYCLIN K Nuclear Protein Level: Immunofluorescence/High Content Analysis
In the context of the present invention, the term “DC50 Cyclin K” refers to the DC50 values obtained according to the assay described in this section (7) herein below, i.e. the DC50 values for the degradation of Cyclin K.
CAL-120 human breast cancer cells (DSMZ ACC 459) are seeded in 1536-well microtiter plates (800 cells per well) containing 50 nanoL of compounds in Dose-Response. Control wells received DMSO or Reference Example 1. Plates are then incubated for 24 h at 37° C. in an humidified incubator and fixed with 4% PFA for 10 min. Then immunofluorescence (IF) against CYCLIN K (ThermoFisher Scientific CCNK Antibody # PA5-85020, rabbit, 1:200 dilution) is performed using standard IF protocols. Cells are then stained with Hoechst 33342 (Life Technologies, H-1399, 0.1 microg/mL) and imaged on an automated confocal microscopy system (e.g. Perkin Elmer Opera Phenix). Nuclear and cytoplasmic intensity as well as the nuclear/cytoplasmic intensity ratio is determined by automated image analysis using custom generated scripts (MetaXpress). Data is then transferred to Genedata Screener software, normalized to DMSO and control and DC50 values (degrading concentration to achieve 50% reduction of nuclear CCNK staining intensity relative to controls) are reported.

T2 sequence (O75909 whole entry): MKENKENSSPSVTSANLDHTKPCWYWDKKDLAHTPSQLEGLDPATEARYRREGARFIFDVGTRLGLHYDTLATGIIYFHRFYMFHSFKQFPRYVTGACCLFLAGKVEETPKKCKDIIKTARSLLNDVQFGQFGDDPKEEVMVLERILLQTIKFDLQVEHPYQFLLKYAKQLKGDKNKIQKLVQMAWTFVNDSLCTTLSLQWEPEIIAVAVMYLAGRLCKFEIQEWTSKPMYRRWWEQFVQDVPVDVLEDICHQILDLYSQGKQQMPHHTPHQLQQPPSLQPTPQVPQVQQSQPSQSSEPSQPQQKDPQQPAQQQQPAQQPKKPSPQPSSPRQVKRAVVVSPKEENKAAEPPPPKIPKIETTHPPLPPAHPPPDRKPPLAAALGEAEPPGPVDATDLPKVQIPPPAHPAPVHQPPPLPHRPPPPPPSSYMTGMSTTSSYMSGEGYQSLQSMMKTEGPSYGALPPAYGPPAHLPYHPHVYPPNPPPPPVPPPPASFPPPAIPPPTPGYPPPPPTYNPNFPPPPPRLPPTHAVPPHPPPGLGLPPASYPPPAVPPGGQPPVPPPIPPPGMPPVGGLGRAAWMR
T2 sequence (Q9NYV4 whole entry partner): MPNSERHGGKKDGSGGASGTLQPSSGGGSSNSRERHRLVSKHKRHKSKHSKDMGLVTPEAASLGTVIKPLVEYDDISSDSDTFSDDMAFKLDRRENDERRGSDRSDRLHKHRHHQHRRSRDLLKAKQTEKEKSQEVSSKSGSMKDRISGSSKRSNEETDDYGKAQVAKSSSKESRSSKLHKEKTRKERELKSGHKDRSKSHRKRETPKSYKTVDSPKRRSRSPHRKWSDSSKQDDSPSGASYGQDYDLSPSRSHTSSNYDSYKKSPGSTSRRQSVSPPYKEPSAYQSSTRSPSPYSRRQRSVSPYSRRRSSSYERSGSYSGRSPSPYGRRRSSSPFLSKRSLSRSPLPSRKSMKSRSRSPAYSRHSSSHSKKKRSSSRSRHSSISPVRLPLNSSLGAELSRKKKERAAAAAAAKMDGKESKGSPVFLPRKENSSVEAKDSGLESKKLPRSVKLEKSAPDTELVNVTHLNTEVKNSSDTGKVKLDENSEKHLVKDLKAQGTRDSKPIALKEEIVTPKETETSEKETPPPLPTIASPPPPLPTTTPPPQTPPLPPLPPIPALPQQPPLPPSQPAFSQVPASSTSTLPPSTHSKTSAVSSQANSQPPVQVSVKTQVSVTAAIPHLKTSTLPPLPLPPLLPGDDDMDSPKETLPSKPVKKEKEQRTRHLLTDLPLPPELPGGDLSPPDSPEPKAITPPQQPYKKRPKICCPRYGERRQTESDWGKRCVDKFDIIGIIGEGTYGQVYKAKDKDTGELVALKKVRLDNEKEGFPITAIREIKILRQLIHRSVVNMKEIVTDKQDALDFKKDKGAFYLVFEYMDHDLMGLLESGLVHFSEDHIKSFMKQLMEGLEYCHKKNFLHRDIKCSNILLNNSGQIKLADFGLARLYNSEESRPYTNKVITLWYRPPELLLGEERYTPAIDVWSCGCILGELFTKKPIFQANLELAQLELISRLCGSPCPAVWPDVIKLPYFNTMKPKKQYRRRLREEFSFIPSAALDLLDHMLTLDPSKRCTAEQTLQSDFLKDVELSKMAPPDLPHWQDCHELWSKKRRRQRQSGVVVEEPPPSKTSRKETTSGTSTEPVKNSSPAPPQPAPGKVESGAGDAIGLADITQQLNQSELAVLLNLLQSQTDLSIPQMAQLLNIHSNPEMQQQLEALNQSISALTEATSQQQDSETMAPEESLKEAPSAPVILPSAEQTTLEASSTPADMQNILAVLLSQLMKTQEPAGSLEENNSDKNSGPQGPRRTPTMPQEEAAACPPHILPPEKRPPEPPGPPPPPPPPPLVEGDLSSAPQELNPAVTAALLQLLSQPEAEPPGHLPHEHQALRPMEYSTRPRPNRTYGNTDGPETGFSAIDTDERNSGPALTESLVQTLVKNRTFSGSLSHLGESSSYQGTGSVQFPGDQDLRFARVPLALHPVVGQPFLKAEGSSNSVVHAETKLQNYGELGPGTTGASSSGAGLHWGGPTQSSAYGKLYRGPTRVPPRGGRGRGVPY

| IC50 (CDK2/CyclinE) [nM] | DC50 (CYCLIN K) [nM] | SMILES |
| --- | --- | --- |
| > 20000 | 11.3 | CC(C)(O)C1CC(n2nc(NCc3nc4ccccc4[nH]3)c3ncc(C4CC4)nc32)C1 (mixture of isomers) [Example 48, 2-[cis/trans-3-(3-{[(1H-benzimidazol-2-yl)methyl]amino}-6-cyclopropyl-1H-pyrazolo[3,4-b]pyrazin-1-yl)cyclobutyl]propan-2-ol] |
| > 20000 | 159 | c1ccc2[nH]c(CNc3nn(C4CCOC4)c4nc(C5CC5)cnc34)nc2c1 (racemic) [Example 10, (±)-N-[(1H-benzimidazol-2-yl)methyl]-6-cyclopropyl-1-[oxolan-3-yl]-1H-pyrazolo[3,4-b]pyrazin-3-amine] |
| > 20000 | 2.3 | CC1CC(n2nc(NCc3nc4ccccc4[nH]3)c3ncc(C4CC4)nc32)CCN1C (racemic) [Example 41, (±)-cis/trans-N-[(1H-benzimidazol-2-yl)methyl]-6-cyclopropyl-1-(1,2-dimethylpiperidin-4-yl)-1H-pyrazolo[3,4-b]pyrazin-3-amine] |
| > 20000 | 17.2 | CC1COCCC1n1nc(NCc2nc3ccccc3[nH]2)c2ncc(C3CC3)nc21 (racemic) [Example 42, (±)-cis/trans-N-[(1H-benzimidazol-2-yl)methyl]-6-cyclopropyl-1-(3-methyloxan-4-yl)-1H-pyrazolo[3,4-b]pyrazin-3-amine] |
| > 20000 | 13.5 | CC1CC(n2nc(NCc3nc4ccccc4[nH]3)c3ncc(C4CC4)nc32)CCO1 (racemic) [Example 44, (±)-cis/trans-N-[(1H-benzimidazol-2-yl)methyl]-6-cyclopropyl-1-(2-methyloxan-4-yl)-1H-pyrazolo[3,4-b]pyrazin-3-amine] |
| > 20000 | 1.72 | CN1CCCC(n2nc(NCc3nc4ccccc4[nH]3)c3ncc(C4CC4)nc32)CC1 (single isomer, unassigned) [Example 37, (+) or (−)-N-[(1H-benzimidazol-2-yl)methyl]-6-cyclopropyl-1-[(4R*)-1-methylazepan-4-yl]-1H-pyrazolo[3,4-b]pyrazin-3-amine] |
| > 20000 | 38.6 | COCCC(C)n1nc(NCc2nc3ccccc3[nH]2)c2ncc(C3CC3)nc21 (single isomer, unassigned; (+)) [Example 59, (+)-N-[(1H-benzimidazol-2-yl)methyl]-6-cyclopropyl-1-[4-methoxybutan-2-yl]-1H-pyrazolo[3,4-b]pyrazin-3-amine] |
| > 20000 | 15.6 | COCCC(C)n1nc(NCc2nc3ccccc3[nH]2)c2ncc(C3CC3)nc21 (single isomer, unassigned; (-)) [Example 58, (−)-N-[(1H-benzimidazol-2-yl)methyl]-6-cyclopropyl-1-[4-methoxybutan-2-yl]-1H-pyrazolo[3,4-b]pyrazin-3-amine] |
| > 20000 | 7.1 | CN1CCC(n2nc(NCc3nc4ccccc4[nH]3)c3ncc(C4CC4)nc32)CC1 [Example 1, N-[(1H-benzimidazol-2-yl)methyl]-6-cyclopropyl-1-(1-methylpiperidin-4-yl)-1H-pyrazolo[3,4-b]pyrazin-3-amine] |
| > 20000 | 0.704 | COc1cccc2[nH]c(CNc3nn(C4CCN(C)CC4)c4nc(C5CC5)cnc34)nc12 [Example 2, 6-cyclopropyl-N-[(4-methoxy-1H-benzimidazol-2-yl)methyl]-1-(1-methylpiperidin-4-yl)-1H-pyrazolo[3,4-b]pyrazin-3-amine] |
| > 20000 | 1.15 | CN1CCC(n2nc(NCc3nc4c(F)cccc4[nH]3)c3ncc(C4CC4)nc32)CC1 [Example 3, 6-cyclopropyl-N-[(4-fluoro-1H-benzimidazol-2-yl)methyl]-1-(1-methylpiperidin-4-yl)-1H-pyrazolo[3,4-b]pyrazin-3-amine] |
| > 20000 | 0.914 | CN1CCC(n2nc(NCc3nc4cc(F)ccc4[nH]3)c3ncc(C4CC4)nc32)CC1 [Example 4, 6-cyclopropyl-N-[(5-fluoro-1H-benzimidazol-2-yl)methyl]-1-(1-methylpiperidin-4-yl)-1H-pyrazolo[3,4-b]pyrazin-3-amine] |
| > 20000 | 0.263 | Cc1ccc2[nH]c(CNc3nn(C4CCN(C)CC4)c4nc(C5CC5)cnc34)nc2c1 [Example 6, 6-cyclopropyl-N-[(5-methyl-1H-benzimidazol-2-yl)methyl]-1-(1-methylpiperidin-4-yl)-1H-pyrazolo[3,4-b]pyrazin-3-amine] |
| > 20000 | 2.62 | CN1CCC(n2nc(NCc3nc4c(C(F)(F)F)cccc4[nH]3)c3ncc(C4CC4)nc32)CC1 [Example 7, 6-cyclopropyl-1-(1-methylpiperidin-4-yl)-N-{[4-(trifluoromethyl)-1H-benzimidazol-2-yl]methyl}-1H-pyrazolo[3,4-b]pyrazin-3-amine] |
| > 20000 | 6.22 | Cc1cccc2[nH]c(CNc3nn(C4CCN(C)CC4)c4nc(C5CC5)cnc34)nc12 [Example 8, 6-cyclopropyl-N-[(4-methyl-1H-benzimidazol-2-yl)methyl]-1-(1-methylpiperidin-4-yl)-1H-pyrazolo[3,4-b]pyrazin-3-amine] |
| > 20000 | 2.16 | c1ccc2[nH]c(CNc3nn(C4CCNCC4)c4nc(C5CC5)cnc34)nc2c1 [Example 12, N-[(1H-benzimidazol-2-yl)methyl]-6-cyclopropyl-1-(piperidin-4-yl)-1H-pyrazolo[3,4-b]pyrazin-3-amine] |
| > 20000 | 3.11 | O=CO.c1ccc(-n2nc(NCc3nc4ccccc4[nH]3)c3ncc(C4CC4)nc32)cc1 [Example 13, formic acid—N-[(1H-benzimidazol-2-yl)methyl]-6-cyclopropyl-1-phenyl-1H-pyrazolo[3,4-b]pyrazin-3-amine (1/1)] |
| > 20000 |  | Cc1cccc2[nH]c(CNc3nn(C4CCOCC4)c4nc(C5CC5)cnc34)nc12 [Example 33, 6-cyclopropyl-N-[(4-methyl-1H-benzimidazol-2-yl)methyl]-1-(oxan-4-yl)-1H-pyrazolo[3,4-b]pyrazin-3-amine] |
| > 20000 |  | FC1(F)CCC(n2nc(NCc3nc4ccccc4[nH]3)c3ncc(C4CC4)nc32)CC1 [Example 36, N-[(1H-benzimidazol-2-yl)methyl]-6-cyclopropyl-1-(4,4-difluorocyclohexyl)-1H-pyrazolo[3,4-b]pyrazin-3-amine] |
| > 20000 |  | OCCCn1nc(NCc2nc3ccccc3[nH]2)c2ncc(C3CC3)nc21 [Example 60, 3-(3-{[(1H-benzimidazol-2-yl)methyl]amino}-6-cyclopropyl-1H-pyrazolo[3,4-b]pyrazin-1-yl)propan-1-ol] |
| > 20000 |  | COCCCn1nc(NCc2nc3ccccc3[nH]2)c2ncc(C3CC3)nc21 [Example 61, N-[(1H-benzimidazol-2-yl)methyl]-6-cyclopropyl-1-(3-methoxypropyl)-1H-pyrazolo[3,4-b]pyrazin-3-amine] |
